Tested on: cytokines in the blood
Assay: Plasma cytokines after intravenous infusion of TLR-7 agonists in cynomolgus monkeys
Format: in vivo, cynomolgus monkey
Settings: thirty minute i.v. infusion
Text: The objective of the following study was to observe the effect of the in vivo administration of different amounts of small molecule agonists of TLR-7, N-(4-(4-amino-2-(2-methoxyethyl)-1H-imidazo[4,5-c]quinolin-1-yl)butyl)-N-(tetrahydro-2H-pyran-4-yl)acetamide (SM1) and N-(4-(4-amino-2-ethyl-1H-imidazo[4,5-c]quinolin-1-yl)butyl)-N-(1,1-dioxidothietan-3-yl)acetamide (SM3), on expression of various cytokines in the blood in a cynomolgus monkey model. The various cytokines whose expression was determined include interferon alpha, interleukin 1 receptor antagonist, interleukins 4, 6, 8, 10, 12, 15, 18, monocyte chemoattractant protein 1, granulocyte-colony stimulating factor, macrophage inflammatory protein 1 beta, tumor necrosis factor alpha, and vascular endothelial growth factor.
A defined single dose of one of the agonist compounds was administered intravenously to cynomolgus monkeys in a thirty minute infusion. […]
Cytokines levels were determined using an interferon alpha Elisa kit (e.g., VeriKine™ Cynomolgus/Rhesus IFNα ELISA Kit) and a Luminex® non-human primate cytokine/chemokine kit (e.g., Milliplex Non-Human Primate Cytokine/Chemokine Magnetic Premixed 23 Plex Panel), in accordance to the manufacturers' instructions. […]

Structure (SMILES) | cytokine levels in plasma (FIGS. 10a-10kk) (male and female cynomolgus monkeys, 30, 100 or 300 μg/kg, then at 14 days 1, 3 or 10 mg/kg) | cytokine levels in plasma (FIGS. 11a-11m) (male cynomolgus monkeys, 300 μg/kg, 1, 3 and 10 mg/kg)
COCCc1nc2c(N)nc3ccccc3c2n1CCCCN(C(C)=O)C1CCOCC1 [SM1, N-(4-(4-amino-2-(2-methoxyethyl)-1H-imidazo[4,5-c]quinolin-1-yl)butyl)-N-(tetrahydro-2H-pyran-4-yl)acetamide] | production of various cytokines in a highly individual manner | –
CCc1nc2c(N)nc3ccccc3c2n1CCCCN(C(C)=O)C1CS(=O)(=O)C1 [SM3, N-(4-(4-amino-2-ethyl-1H-imidazo[4,5-c]quinolin-1-yl)butyl)-N-(1,1-dioxidothietan-3-yl)acetamide] | – | production of various cytokines in a highly individual manner

Source: US20200191798A1, “DOSE DETERMINATION FOR IMMUNOTHERAPEUTIC AGENTS” (BIONTECH RNA PHARMACEUTICALS GMBH, priority 2016, published 2020)
